Legend:
HL-60 cells = test: HL-60 cell differentiation (nitro blue tetrazolium reduction); format: cell-based, human; details: for EC50: FIG. 2
Procedure: The study drugs were dissolved in ethanol and the concentrations determined using UV spectrophotometry. Serial dilutions were prepared so that a range of drug concentrations could be tested without changing the final concentration of ethanol (≦0.2%) present in the cell cultures.
Human promyelocytic leukemia (HL60) cells were grown in RPMI-1640 medium containing 10% fetal bovine serum. The cells were incubated at 37° C. in the presence of 5% CO2.
HL60 cells were plated at 1.2×10^5 cells/ml. Eighteen hours after plating, cells in duplicate were treated with drug. Four days later, the cells were harvested and a nitro blue tetrazolium reduction assay was performed (Collins et al., 1979; J. Exp. Med. 149:969-974). The percentage of differentiated cells was determined by counting a total of 200 cells and recording the number that contained intracellular black-blue formazan deposits. Verification of differentiation to monocytic cells was determined by measuring phagocytic activity (data not shown).

vitamin D-deficient rats [1] = test: Bone calcium mobilization (serum calcium); format: in vivo, rat; details: for bone calcium mobilization activity (serum calcium): rats on low calcium diet (0.02%), 4 consecutive daily ip doses
Procedure: (§1) Male, weanling Sprague-Dawley rats were placed on Diet 11 (0.47% Ca) diet+AEK oil for one week followed by Diet 11 (0.02% Ca)+AEK oil for 3 weeks. The rats were then switched to a diet containing 0.47% Ca for one week followed by two weeks on a diet containing 0.02% Ca. Dose administration began during the last week on 0.02% calcium diet. Four consecutive ip doses were given approximately 24 hours apart. Twenty-four hours after the last dose, blood was collected from the severed neck and the concentration of serum calcium determined as a measure of bone calcium mobilization. The first 10 cm of the intestine was also collected for intestinal calcium transport analysis using the everted gut sac method.

vitamin D-deficient rats [2] = test: Intestinal calcium transport (everted gut sac method); format: in vivo, rat
Procedure: as §1

[3] = molecular target: T1, full-length recombinant rat vitamin D receptor (Rattus norvegicus, UniProt P13053); test: Vitamin D receptor competitive binding with [3H]-1,25(OH)2D3; details: full-length recombinant rat VDR; FIG. 1; read-out: Ki, competition with [3H]-1,25(OH)2D3 for binding to vitamin D receptor
T1 construct: Full-length recombinant rat receptor was expressed in E. coli BL21 (DE3) Codon Plus RIL cells; histidine tag (C); made in house; host or cells: E. coli BL21 (DE3) Codon Plus RIL
T1 sequence (P13053 1-423): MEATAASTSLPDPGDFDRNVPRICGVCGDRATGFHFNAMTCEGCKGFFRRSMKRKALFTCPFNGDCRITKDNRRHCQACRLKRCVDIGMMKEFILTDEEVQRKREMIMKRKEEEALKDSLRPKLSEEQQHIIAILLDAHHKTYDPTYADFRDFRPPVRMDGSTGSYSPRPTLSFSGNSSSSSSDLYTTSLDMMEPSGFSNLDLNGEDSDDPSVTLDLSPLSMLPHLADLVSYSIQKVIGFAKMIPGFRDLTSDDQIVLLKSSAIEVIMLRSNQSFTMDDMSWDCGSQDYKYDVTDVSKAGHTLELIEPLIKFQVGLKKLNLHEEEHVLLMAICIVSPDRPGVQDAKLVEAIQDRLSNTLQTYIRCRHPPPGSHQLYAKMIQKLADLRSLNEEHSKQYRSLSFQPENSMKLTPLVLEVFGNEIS
Procedure: Full-length recombinant rat receptor was expressed in E. coli BL21 (DE3) Codon Plus RIL cells and purified to homogeneity using two different column chromatography systems. The first system was a nickel affinity resin that utilizes the C-terminal histidine tag on this protein. The protein that was eluted from this resin was further purified using ion exchange chromatography (S-Sepharose Fast Flow). Aliquots of the purified protein were quick frozen in liquid nitrogen and stored at −80° C. until use. For use in binding assays, the protein was diluted in TEDK50 (50 mM Tris, 1.5 mM EDTA, pH7.4, 5 mM DTT, 150 mM KCl) with 0.1% Chaps detergent. The receptor protein and ligand concentration were optimized such that no more than 20% of the added radiolabeled ligand was bound to the receptor.
Radiolabeled and unlabeled ligands were added to 100 mcl of the diluted protein at a final ethanol concentration of ≦10%, mixed and incubated overnight on ice to reach binding equilibrium. The following day, 100 mcl of hydroxylapatite slurry (50%) was added to each tube and mixed at 10-minute intervals for 30 minutes. The hydroxylapaptite was collected by centrifugation and then washed three times with Tris-EDTA buffer (50 mM Tris, 1.5 mM EDTA, pH 7.4) containing 0.5% Titron X-100. […] Total binding was determined from the tubes containing only radiolabeled ligand.

[4] = system: 24-hydroxylase (24 Ohase) gene promoter in ROS 17/2.8 (bone) cells; test: In vitro transcription assay (24-hydroxylase promoter luciferase reporter); format: cell-based
Procedure: Transcription activity was measured in ROS 17/2.8 (bone) cells that were stably transfected with a 24-hydroxylase (24 Ohase) gene promoter upstream of a luciferase reporter gene (Arbour et al., 1998). Cells were given a range of doses. Sixteen hours after dosing the cells were harvested and luciferase activities were measured using a luminometer.
RLU=relative luciferase units.

[5] = times greater than the native hormone

Structure (SMILES) | EC50 (HL-60 cells) [nM] | bone calcium mobilization activity (serum calcium) (vitamin D-deficient rats [1]; FIG. 4A) | intestinal calcium transport at 780 pmol/day (vitamin D-deficient rats [2]) | Ki [3] [nM] | EC50 (HL-60 cells; Homo sapiens, HL-60) [nM] | HL-60 cell differentiation activity relative to 1α,25-dihydroxyvitamin D3 (HL-60 cells; [5]) [times] | EC50 ([4]; 24-hydroxylase gene, FIG. 3, read-out: EC50, transcriptional activity in bone cells) [nM] | transcriptional activity in bone cells relative to 1α,25-dihydroxyvitamin D3 [4, 5] [times] | bone calcium mobilization at 7020 pmol/day compared with native hormone at 780 pmol/day (vitamin D-deficient rats [1]; 7020 pmol/day for 4 consecutive days, FIG. 4B) | dose giving the same mobilization of bone calcium as 1,25(OH)2D3 at 32 pmol/day (vitamin D-deficient rats [1]; 4 consecutive days, FIG. 4A) [pmol/day] | dose at which any substantial effect on bone calcium mobilization was seen (vitamin D-deficient rats [1]; FIG. 4A, first group of animals) [pmol/day] | dose at which any substantial effect on bone calcium mobilization was seen (vitamin D-deficient rats [1]; FIG. 4B, second group of animals) | intestinal calcium transport activity at 260 pmol/day (vitamin D-deficient rats [2]; 260 pmol/day for 4 consecutive days, FIG. 5A) | dose at which any significant effect on intestinal calcium transport was seen (vitamin D-deficient rats [2]; FIG. 5A) [pmol/day] | intestinal calcium transport activity (vitamin D-deficient rats [2]; FIG. 5A, overall) | intestinal calcium transport activity compared with native hormone (vitamin D-deficient rats [2]; FIG. 5B, second group of animals)
C=C1/C(=C\C=C2/CCC[C@]3(C)[C@@H]([C@H](C)CCCC(C)(C)O)CC[C@@H]23)C[C@@H](O)C[C@@H]1O [1,25(OH)2D3, 1α,25-dihydroxyvitamin D3, reference compound] | 3 | increased serum calcium levels at all dosages | significant increase |  |  |  |  |  |  |  |  |  |  |  |  | 
C=C1[C@H](O)CC(=C/C=C2\CCC[C@]3(C)[C@@H]([C@H](C)/C=C/[C@@H](O)C4(C(=C)CCCCC)CC4)CC[C@@H]23)C[C@H]1O [MM-49, 2-methylene-(22E)-25-(1-methylene-hexyl)-26,27-cyclo-22-dehydro-19-nor-1α,24(R)-dihydroxyvitamin D3] |  | relatively low, or little, activity in mobilizing calcium from bone | promotes intestinal calcium transport | 0.3 | 0.8 | ~5 | 0.08 | 5 | did not result in the same mobilization of bone calcium | 260 | 780 | 35,100 pmol/day | did not result in any activity | 780 | relatively low, or little, intestinal calcium transport activity | significantly less than 1,25(OH)3D3

— patent US7713953B2, “2-methylene-(22E)-25-(1-methylene-hexyl)-26,27-cyclo-22-dehydro-19-nor-vitamin D analogs” (Wisconsin Alumni Research Foundation, priority 2008, dated 2010)
